Measured values from the NIST ThermoML archive (doi:10.1016/j.jct.2008.04.008).

Test: mn = molality of the nth substance listed, in mol/kg
Conditions: Liquid; for speed of sound: Pulse-echo method

[Br-].c1ccc([P+](c2ccccc2)(c2ccccc2)c2ccccc2)cc1 [tetraphenylphosphorane bromide] + CO
Conditions	mass density, 283.15 K [kg/m3]	mass density, 288.15 K [kg/m3]	mass density, 293.15 K [kg/m3]	mass density, 298.15 K [kg/m3]	mass density, 303.15 K [kg/m3]	mass density, 308.15 K [kg/m3]	mass density, 313.15 K [kg/m3]	speed of sound, 298.15 K [m/s]
m1 = 0.0261	804.518	799.837	795.15	790.45	785.734	780.996	776.229	1106.5
m1 = 0.03452	805.776	801.095	796.408	791.716	787.003	782.267	777.504	1107.7
m1 = 0.04277	807.01	802.333	797.652	792.957	788.242	783.515	778.757	1109.1
m1 = 0.05089	808.208	803.532	798.856	794.167	789.459	784.728	779.972	1110.1
m1 = 0.05974	–	–	–	–	–	–	–	1111.4
m1 = 0.06826	810.754	806.084	801.412	796.727	792.025	787.301	782.553	1112.8
m1 = 0.08592	813.321	808.661	803.994	799.314	794.618	789.901	785.158	1115.3
m1 = 0.1039	815.894	811.236	806.575	801.901	797.21	792.499	787.763	1117.8
m1 = 0.1212	818.357	813.704	809.048	804.378	799.693	794.987	790.256	1119.9
m1 = 0.1384	820.799	816.147	811.492	806.831	802.152	797.452	792.728	1122.4
m1 = 0.1565	823.304	818.656	814.011	809.353	804.679	799.985	795.267	1124.7
m1 = 0.1747	825.843	821.2	816.556	811.905	807.237	802.548	797.837	1127
